Experiments:
Type in all cases: functional, cell-based
Details in all cases: Mus musculus
[1] = system: P388; experiment: Tested for in vitro growth inhibition against murine leukemia cell P388S
[2] = system: L1210; experiment: Tested for in vitro growth inhibition against murine leukemia cell L1210PtR4
[3] = system: L1210; experiment: Tested for in vitro growth inhibition against murine leukemia cell L1210S
[4] = system: L1210; experiment: Tested for in vitro growth inhibition against murine leukemia cell L1210DDP5
[5] = system: L1210; experiment: Tested for in vitro growth inhibition against murine leukemia cell L1210DACH
[6] = system: P388; experiment: Tested for in vitro growth inhibition against murine leukemia cell P388Pt4

| Substance | ID50 [1] | ID50 [2] | ID50 [3] | ID50 [4] | ID50 [5] | ID50 [6] |
| --- | --- | --- | --- | --- | --- | --- |
| [Pt(1R,2R-dach)Cl2] | 0.077 µg/mL | 0.161 µg/mL | 0.059 µg/mL | 0.164 µg/mL | 4.57 µg/mL | 0.83 µg/mL |
| CI-973 | 0.1 µg/mL | 2.6 µg/mL | 0.76 µg/mL | 3.9 µg/mL | 1.8 µg/mL | 1.62 µg/mL |
